Test results published in ChEMBL document CHEMBL2169860, “Design of a hypoxia-activated prodrug inhibitor of O6-alkylguanine-DNA alkyltransferase” (Bioorg Med Chem Lett, 2012).
Activity calls are given as the source filed them. No cut-off for these calls is given here.

How the values were obtained:
EMT6 [1] = assay: Prodrug activation in mouse EMT6 cells assessed as 6-((3-((dimethylamino)methyl)benzyl)oxy)-9H-purin-2-amine level under oxic condition at 200 uM after 1 hr by HPLC analysis; assay type: cell-based; settings: emt6, 1 h
EMT6 [2] = assay: Prodrug activation in mouse EMT6 cells assessed as 6-((3-((dimethylamino)methyl)benzyl)oxy)-9H-purin-2-amine level under hypoxic condition at 200 uM after 1 hr by HPLC analysis; assay type: cell-based; settings: emt6, 1 h
EMT6 [3] = assay: Potentiation of laromustine-induced cytotoxicity against mouse EMT6 cells expressing human AGT assessed as cell survival fraction at 2 uM treated 2 hrs before laromustine addition measured after 18 hrs by clonogenic assay; assay type: functional, cell-based
EMT6 [4] = assay: Cytotoxicity against mouse EMT6 cells expressing human AGT assessed as cell survival fraction at 2 uM after 18 hrs by clonogenic assay; assay type: cell-based; settings: emt6, 18 h
EMT6 [5] = assay: Stability of the compound in mouse EMT6 cells assessed as parent compound level under oxic condition at 200 uM after 1 hr by HPLC analysis; assay type: ADME, cell-based; settings: emt6, 1 h
[6] = target: T1, Methylated-DNA--protein-cysteine methyltransferase (Homo sapiens, UniProt P16455)
T1 sequence (P16455 whole entry): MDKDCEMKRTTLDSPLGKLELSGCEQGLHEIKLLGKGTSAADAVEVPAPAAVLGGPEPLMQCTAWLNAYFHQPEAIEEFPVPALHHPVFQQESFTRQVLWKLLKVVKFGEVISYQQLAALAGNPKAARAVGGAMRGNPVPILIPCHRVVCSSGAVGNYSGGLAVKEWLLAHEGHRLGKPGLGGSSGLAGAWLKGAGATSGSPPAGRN
Description: Inhibition of AGT in human HL60 cells assessed as AGT levels using [3H]AGT after 2 hrs

EMT6 [7] = assay: Stability of the compound in mouse EMT6 cells assessed as parent compound level under hypoxic condition at 200 uM after 1 hr by HPLC analysis; assay type: ADME, cell-based; settings: emt6, 1 h

SMILES | Activity (EMT6 [3]) | Activity (EMT6 [4]) | IC50 [6] [nM] | other results
CN(C)Cc1cccc(COc2nc(NC(=O)OC(C)(C)c3ccc([N+](=O)[O-])cc3)nc3[nH]cnc23)c1 |  |  |  | Drug metabolism (EMT6 [1]): 195.5 µM; Drug metabolism (EMT6 [2]): 149.6 µM
Nc1nc(OCc2ccccc2)c2nc[nH]c2n1 | Active |  |  | 
CN(C)Cc1cccc(COc2nc(N)nc3[nH]cnc23)c1 | Active | Non-toxic | 25 | Stability (EMT6 [5]): 0.2 µM; Stability (EMT6 [7]): 12.3 µM
NCc1cccc(COc2nc(N)nc3nc[nH]c23)c1 | Active | Non-toxic |  | 
CC(=O)NCc1cccc(COc2nc(N)nc3[nH]cnc23)c1 | Active | Non-toxic | 86 | 
Nc1nc(OCc2ccccc2)c2[nH]cnc2n1 [6-O-BENZYLGUANINE] |  | Non-toxic |  | 
